Measurements from publication PMC5941726, “Evaluating Hepatobiliary Transport with ^18F-Labeled Bile Acids: The Effect of Radiolabel Position and Bile Acid Structure on Radiosynthesis and In Vitro and In Vivo Performance” (Contrast Media & Molecular Imaging, 2018).
Where “and” joins values, the source holds several entries; their conditions need not be identical. Equal entries are not always repeated. Where two headings read alike, the source gives them in different places.

How the values were obtained:
wild-type FVB-mice = assay: Dynamic PET/CT imaging of hepatobiliary transport in wild-type FVB-mice; format: in vivo, mouse; details: wild-type mice; for Time-to-peak liver / AUC GBI (gallbladder and intestines) / AUC liver (time-activity curve) / Max% ID GBI (gallbladder and intestines) / Max% ID liver: 9 MBq i.v., 1 hour PET-scan; for Time-to-peak liver / AUC GBI (gallbladder and intestines) / AUC liver (time-activity curve) / Max% ID GBI (gallbladder and intestines) / Max% ID liver / Biliary clearance: n = 3; for AUC GBI (gallbladder and intestines) / AUC liver (time-activity curve) / Max% ID GBI (gallbladder and intestines) / Max% ID liver: normalized for 20 g mouse; for Organ uptake after intravenous injection: PET; for Injected activity found in gallbladder and intestines after 1 hour: i.v.; for Biliary clearance: cumulative amount in gallbladder & intestines / AUC blood concentration 0-60 min
Method: The in vivo transport characteristics of the ^18F labeled bile acids were evaluated in wild-type FVB-mice (female, 5 w). The tracer described earlier, 3β-[^18F]FCA, was also included as a reference standard. Imaging was performed with a PET/CT (FLEX Triumph II small animal PET/CT-scanner; axial field of view: 7.5 cm; 1.3 mm spatial resolution; TriFoil Imaging). For each tracer, three animals were used. The animals were housed and handled in accordance with the European Ethics Committee guidelines and the experiments were approved by the Animal Experimental Ethical Committee of Ghent University (ECD 15/69).
Food and water were provided ad libitum, but the animals were fasted overnight before a PET/CT-scan. They were anesthetized with 1.5 v : v% isoflurane in O2 and placed on a heated bed. To allow injection of the tracer, a polyethylene intravenous line was inserted in the lateral tail vein and fixed. After the animals were transferred to the scanner animal bed, a 1 hour PET-scan was started and 9 MBq tracer was injected directly after starting the scan. Following this PET-scan, 9 MBq [^18F]FDG was injected and twenty minutes later, a second PET-scan with a 20-minute acquisition time was started.
All PET-scans were obtained in list-mode and were iteratively reconstructed (50 iterations). The 1-hour scan was reconstructed in the following frames: 8 × 15 s; 16 × 30 s; 10 × 60 s; 20 × 120 s. For presentation purposes, Maximum Intensity Projection PET/CT images were generated in Amide software. The data were analyzed using Pmod software v3.405 (PMOD Technologies): Regions Of Interest (ROIs) were drawn manually over the liver, gallbladder, and intestines. On the static [^18F]FDG scan, the left ventricle was delineated and this ROI was pasted on the dynamic scan to obtain an image-derived arterial blood concentration. The uptake of radioactivity in liver, gallbladder, and intestines was expressed as a percentage of the injected dose (% ID) and normalized for the weight of a 20 g mouse. The % ID in these organs was monitored in function of time to obtain time-activity curves (TACs). Biliary clearance of the tracers was determined with equation 2 from Ghibellini et al. [14](2) Biliary clearance=cumulative amount of tracer in gallbladder&intestines/AUC blood concentration0→60 min.
The Area Under the Curve (AUC), % ID, and time-to-peak values of the TACs were determined in GraphPad Prism v3.00 Software. The obtained parameters of the different ^18F labeled bile acids were compared to 3β-[^18F]FCA-values in SPSS Statistics 23 Software. Differences between two groups were analyzed with the nonparametric Mann–Whitney U test. A p value ≤ 0.05 was considered significant.

NTCP [1] = biological target: T1, NTCP (Homo sapiens, UniProt Q14973); design: method as in PMID 28273180; details: Ki calculated from IC50-values extracted from literature; cited from earlier work
T1 construct: host or cells: Chinese Hamster Ovary (CHO) cells
T1 sequence (Q14973 1-349): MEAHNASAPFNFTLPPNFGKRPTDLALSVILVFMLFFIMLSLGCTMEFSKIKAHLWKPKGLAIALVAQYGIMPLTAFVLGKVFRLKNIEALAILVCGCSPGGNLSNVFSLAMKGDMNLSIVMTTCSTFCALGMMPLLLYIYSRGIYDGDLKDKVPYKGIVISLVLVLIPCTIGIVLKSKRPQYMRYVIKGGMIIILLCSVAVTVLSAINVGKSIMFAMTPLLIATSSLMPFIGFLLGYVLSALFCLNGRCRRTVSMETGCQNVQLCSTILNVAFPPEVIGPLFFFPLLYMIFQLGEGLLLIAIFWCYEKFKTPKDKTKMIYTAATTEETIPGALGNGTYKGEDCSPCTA

OATP1B1 [2] = biological target: T2, OATP1B1 (Homo sapiens, UniProt Q9Y6L6); design: host or cells: Human Embryonic Kidney (HEK) cells; method as in PMID 28273180; details: Ki calculated from IC50-values extracted from literature; cited from earlier work
T2 sequence (Q9Y6L6 1-691): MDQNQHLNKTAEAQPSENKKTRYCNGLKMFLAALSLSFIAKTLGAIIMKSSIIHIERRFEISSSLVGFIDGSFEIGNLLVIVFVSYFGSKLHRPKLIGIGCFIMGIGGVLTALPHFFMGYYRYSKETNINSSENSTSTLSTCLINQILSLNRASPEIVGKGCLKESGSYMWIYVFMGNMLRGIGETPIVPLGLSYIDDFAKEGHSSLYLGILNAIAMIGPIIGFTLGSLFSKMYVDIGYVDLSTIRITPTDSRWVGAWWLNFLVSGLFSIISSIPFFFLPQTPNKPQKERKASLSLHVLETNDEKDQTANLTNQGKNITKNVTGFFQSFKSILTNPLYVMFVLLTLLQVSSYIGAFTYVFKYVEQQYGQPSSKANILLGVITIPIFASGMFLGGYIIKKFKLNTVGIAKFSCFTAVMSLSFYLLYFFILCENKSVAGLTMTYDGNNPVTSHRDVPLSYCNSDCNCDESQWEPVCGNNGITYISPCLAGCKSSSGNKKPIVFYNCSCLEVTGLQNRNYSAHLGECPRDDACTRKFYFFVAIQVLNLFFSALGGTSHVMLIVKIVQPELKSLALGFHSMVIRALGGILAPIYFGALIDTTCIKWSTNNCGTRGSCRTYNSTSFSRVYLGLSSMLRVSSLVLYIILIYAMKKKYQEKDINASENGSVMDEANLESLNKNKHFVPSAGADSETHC

BSEP [3] = biological target: T3, BSEP (Homo sapiens, UniProt O95342); design: purchased Pharmtox; method as in PMID 28273180; details: Ki calculated from IC50-values extracted from literature; cited from earlier work
OATP1B1 [4] = biological target: T2, OATP1B1; assay: Inhibition of [^3H]estradiol-17β-glucuronide uptake in HEK cells expressing OATP1B1 (competition assay)
Method: (§2) Chinese Hamster Ovary (CHO) and Human Embryonic Kidney (HEK) cells expressing NTCP and OATP1B1, respectively (Solvo Biotechnologies), were used.
(§3) Cells were seeded in 24-well plates at 400,000 cells/well. […] All dosing solutions were formulated in the washing buffer and dosing was executed in triplicate. The incubation was stopped by placing the plates on ice and adding 1 mL ice-cold 1% BSA HBSS-solution. The supernatant was aspirated and the cells were washed twice with 2 mL ice-cold HBSS-solution. NaOH (250 μl, 0.1 M) was added to lyse the cells and the plates were shaken (15 minutes, 37°C). Aliquots of this lysate were subjected to liquid scintillation counting (TriCarb 2900 TR; Perkin Elmer) and protein determination with a BCA-assay (ThermoFisher Scientific).

[5] = LogD determination of the tracers; format: physicochemical; details: n = 3, mean ± SD; read-out: LogD
Method: (§1) The logD-value, stability (in formulation for use and mouse serum), and identity of the tracer were assessed as described earlier. Radiochemical purity and percentage ^18F-labeling of precursor were determined by radio-TLC (silica gel TLC; with 10% MeOH in CH2Cl2 and 4 : 1 AcN : H2O, resp.).

[6] = Stability of the tracer in formulation for use; format: physicochemical; details: formulation for use (phosphate buffered saline)
Method: as §1

[7] = Stability of the tracer in mouse serum; format: in vitro ADME; details: mouse serum
Method: as §1

NTCP [8] = biological target: T1, NTCP; assay: Inhibition of [^3H]taurocholate uptake in CHO cells expressing NTCP (competition assay); format: cell-based
Description: Maintenance of these cell cultures was described earlier.

BSEP [9] = biological target: T3, BSEP; assay: Inhibition of [^3H]TC uptake in BSEP membrane vesicles (efflux assay); details: read-out: Ki for BSEP; BSEP membrane vesicles, 0.65 μM [^3H]TC, 10 min 37°C; Cheng-Prusoff from IC50 and Km; mean ± SD n = 3
Method: All dosing was performed in triplicate. The plates were suspended in a 37°C water bath 1 minute before the incubation. Incubation was started by adding 10 μL of the ATP solution or buffer solution (negative control). Each well contained a final volume of 30 μL and the plates were incubated for 10 minutes at 37°C.
The contents of each well were pipetted in a glass fiber filter plate (Multiscreen HTS plates; Merck Millipore) and washed 3 times with 200 μL ice-cold buffer solution. Finally, 100 μL 0.1 M NaOH was added: lysis of the vesicles took place for 10 minutes at room temperature. An aliquot was used for liquid scintillation counting.

OATP1B1 [10] = biological target: T2, OATP1B1
Method: as §2, §3

T3 sequence (O95342 whole entry, species assumed): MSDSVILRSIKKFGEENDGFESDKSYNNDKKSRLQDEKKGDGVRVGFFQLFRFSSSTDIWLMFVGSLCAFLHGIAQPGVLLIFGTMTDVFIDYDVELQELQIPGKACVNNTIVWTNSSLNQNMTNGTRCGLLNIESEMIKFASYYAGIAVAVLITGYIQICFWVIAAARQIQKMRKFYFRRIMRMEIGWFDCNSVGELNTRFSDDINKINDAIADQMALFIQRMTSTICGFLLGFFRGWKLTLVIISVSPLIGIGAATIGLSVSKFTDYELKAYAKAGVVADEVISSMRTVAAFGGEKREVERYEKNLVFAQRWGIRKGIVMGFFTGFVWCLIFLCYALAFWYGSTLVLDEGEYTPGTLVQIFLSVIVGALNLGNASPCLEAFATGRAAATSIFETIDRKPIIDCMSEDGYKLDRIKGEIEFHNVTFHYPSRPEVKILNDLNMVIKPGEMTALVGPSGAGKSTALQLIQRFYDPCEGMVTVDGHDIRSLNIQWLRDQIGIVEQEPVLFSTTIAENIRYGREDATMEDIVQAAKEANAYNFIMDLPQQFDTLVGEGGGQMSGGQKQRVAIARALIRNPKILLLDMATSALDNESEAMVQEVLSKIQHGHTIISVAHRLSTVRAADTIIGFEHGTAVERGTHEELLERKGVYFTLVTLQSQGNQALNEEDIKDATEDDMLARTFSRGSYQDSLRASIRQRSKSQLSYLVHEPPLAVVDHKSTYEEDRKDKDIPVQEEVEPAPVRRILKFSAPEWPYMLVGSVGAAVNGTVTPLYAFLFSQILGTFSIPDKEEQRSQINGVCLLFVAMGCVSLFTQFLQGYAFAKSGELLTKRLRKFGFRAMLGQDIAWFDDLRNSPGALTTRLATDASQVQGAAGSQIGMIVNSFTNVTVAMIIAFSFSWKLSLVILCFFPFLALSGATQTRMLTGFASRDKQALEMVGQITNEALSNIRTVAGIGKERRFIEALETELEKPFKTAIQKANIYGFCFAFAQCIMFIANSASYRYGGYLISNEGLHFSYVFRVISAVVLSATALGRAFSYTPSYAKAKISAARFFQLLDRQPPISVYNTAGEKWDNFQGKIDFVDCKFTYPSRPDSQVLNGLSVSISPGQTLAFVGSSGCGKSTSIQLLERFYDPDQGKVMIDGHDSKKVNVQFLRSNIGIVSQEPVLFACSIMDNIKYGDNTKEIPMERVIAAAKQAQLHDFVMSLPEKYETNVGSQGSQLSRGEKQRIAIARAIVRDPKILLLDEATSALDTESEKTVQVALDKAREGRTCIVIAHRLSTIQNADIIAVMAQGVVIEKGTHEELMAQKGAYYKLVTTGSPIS

SMILES	Time-to-peak liver (wild-type FVB-mice)	AUC GBI (gallbladder and intestines) (wild-type FVB-mice)	AUC liver (time-activity curve) (wild-type FVB-mice)	Max% ID GBI (gallbladder and intestines) (wild-type FVB-mice) [%]	Max% ID liver (wild-type FVB-mice) [%]	Organ uptake after intravenous injection (wild-type FVB-mice)	Injected activity found in gallbladder and intestines after 1 hour (wild-type FVB-mice)	Biliary clearance (wild-type FVB-mice) [mL/min]	also measured
C[C@H](CCC(=O)O)[C@H]1CC[C@H]2[C@@H]3[C@H](O)C[C@@H]4C[C@@H]([18F])CC[C@]4(C)[C@H]3C[C@H](O)[C@]12C [3β-[^18F]FCA, 3β-[^18F]fluorocholic acid, reference compound]	5.33 ± 0.24 min	3499 ± 340 % ID·min	1785 ± 194 % ID·min	83.44 ± 9.27	63.80 ± 2.61	exclusive hepatic uptake	approx. 80%	0.46 ± 0.08	–
C[C@H](CCC(=O)O)[C@H]1CC[C@H]2[C@@H]3[C@H](O)C[C@@H]4C[C@@H](F)CC[C@]4(C)[C@H]3C[C@H](O)[C@]12C [3βFCA]	–	–	–	–	–	–	–	–	Ki (NTCP [1]): 6.18 ± 0.59 µM; Ki (OATP1B1 [2]): 9.67 ± 0.83 µM; Ki (BSEP [3]): 216 ± 53 µM
C[C@]12CC[C@@H]3c4ccc(O)cc4CC[C@H]3[C@@H]1CC[C@@H]2O[C@@H]1O[C@H](C(=O)O)[C@@H](O)[C@H](O)[C@H]1O [[^3H]EbG, [^3H]estradiol-17β-glucuronide]	–	–	–	–	–	–	–	–	Vmax of substrate uptake (OATP1B1 [4]; 0–150 μM, 10 min 37°C): 146.4 ± 5.52 pmol/min·mg protein; Km (OATP1B1 [4]; read-out: Km (Michaelis-Menten) of substrate uptake, 0–150 μM, 10 min 37°C): 11.7 ± 1.59 µM
C[C@H](CCC(=O)O)[C@H]1CC[C@H]2[C@@H]3[C@H](O)C[C@@H]4C[C@H]([18F])CC[C@]4(C)[C@H]3C[C@H](O)[C@]12C [3α-[^18F]FCA, 3α-[^18F]fluorocholic acid]	3.33 ± 0.62 min and 3.33 ± 0.62^∗ min	4184 ± 109^∗ % ID·min	1065 ± 171^∗ % ID·min	88.70 ± 2.38	58.58 ± 3.19	exclusive hepatic uptake	approx. 80%	0.49 ± 0.10	logD [5]: 0.92 ± 0.17; Stability in its formulation [6]: stable; Stability in mouse serum [7]: stable
C[C@H](CCC(=O)NCCS(=O)(=O)O)[C@H]1CC[C@H]2[C@@H]3[C@H](O)C[C@@H]4C[C@H](O)CC[C@]4(C)[C@H]3C[C@H](O)[C@]12C [[^3H]TC, [^3H]taurocholate, reference compound]	–	–	–	–	–	–	–	–	Vmax of substrate uptake (NTCP [8]; 0–150 μM, 10 min 37°C): 200.4 ± 9.77 pmol/min·mg protein; Km (NTCP [8]; 0–150 μM, 10 min 37°C, read-out: Km (Michaelis-Menten) of substrate uptake): 15.3 ± 2.46 µM
C[C@H](CCC(=O)O)[C@H]1CC[C@H]2[C@@H]3[C@H](O)C[C@@H]4C[C@H](O)CC[C@]4(C)[C@H]3C[C@@H](F)[C@]12C [12βFCA]	–	–	–	–	–	–	–	–	Ki (BSEP [9]): 367 ± 38.1 µM; Ki (OATP1B1 [10]): 4.56 ± 0.25 µM; Ki (NTCP [8]; 1 μM [^3H]TC, 15 min 37°C, Cheng-Prusoff from IC50 and Km, mean ± SD n = 3): 30.1 ± 9.4 µM
